# Measured values from US10064843B2, “Bis-amide derivative and use thereof” (University-Industry Cooperation Group of Kyung Hee …, priority 2013, dated 2018).
# What was measured:
# [1] = test system: genotype 2a (JFH1) replication cells; test: microbe, parasite or virus in culture; type: cell-based, hepatitis C virus; conditions: Hepatitis C virus
# [2] = in vitro; type: cell-based, hepatitis C virus; conditions: genotype 2a JFH1; FIG. 11b
# [3] = test system: calcineurin; test: Calcineurin phosphorylase analysis in splenocytes; type: cell-based, mouse; conditions: FIG. 8b
# Procedure: Example 6: Analysis of Calcineurin Phosphorylase
# Dephosphorylation of RH phosphopeptide was measured using calcineurin cell activity assay kit (Enzo Life sciences, Plymouth Meeting, Pa., USA) to determine calcium-dependent activity of calcineurin. Splenocytes (2×10^6/well) were incubated along with or WJCPA-126 for 20 hours, and further untreated or stimulated with 1 μg/mL of ionomycin (Calibiochem, La Jolla, Calif., USA). Then, the cells were used for the measurement of calcineurin activity.
# [4] = test system: STAT1, STAT2, IRF9, OAS1, and ISG15; test: Real-time qRT-PCR of interferon-stimulated genes in HCV replicon cell; type: cell-based, human; conditions: 2 μM; FIG. 14
# Procedure: (§1) Example 19: Real-Time Quantitative Reverse Transcriptase PCR Analysis
# (§2) Real-time quantitative reverse transcriptase PCR (qRT-PCR) was performed using SYBR Green PCR Master Mix (Invitrogen/Applied Biosystem, Carlsbad, Calif., USA) and ABI Prism 7300 Real-time PCR System (Applied Biosystems, Carlsbad, Calif., USA) according to the manufacturer's instructions. Calculations were performed based on […] method using the following equation: R (ratio)=2-[ΔCT (sample)-ΔCT (control group)]. The data were expressed as fold change of the treated group relative to the control group and standardized relative to the glyceraldehyde 3-phosphate dehydrogenase (GAPDH) level.
# [5] = target: T1, CypA and NS5A or NS5B (Homo sapiens, UniProt P62937); test: Co-immunoprecipitation and mammalian two-hybrid analysis of CypA with NS5A or NS5B; type: cell-based; conditions: FIG. 13a, 13b
# T1 construct: 1 mg/mL of HCV Con1b replicon protein lysate; endogenous in cells; host or cells: Huh7 cells carrying the HCV Con1b subgenomic replicon
# Procedure: Example 17: Co-Immunoprecipitation Assay
# For co-immunoprecipitation, 4 μg of specific antibody and 1 mg/mL of HCV Con1b replicon protein lysate to a final volume of 500 μL were rotated at 4° C. for 4 hours. Then, 20 μL of the washed protein A/G PLUS agarose (Santa Cruz, Calif., USA) was added thereto and incubated at 4° C. overnight. Subsequently, the sample was washed 3 times with Triton-wash-buffer, resuspended, and denatured in 5×SDS-PAGE buffer at 95° C. for 5 minutes. The resultant was centrifuges at 19,000 g for 1 minute at 4° C. and subjected to western blot analysis.
# Example 18: Mammalian Two-Hybrid System
# The interaction between intracellular CypA-NS5A and CypA-NS5B was confirmed by the two-hybrid screening technology using CheckMate™ mammalian two-hybrid system (Promega, Madison, Wis., USA) according to the manufacturer's instructions. In brief, pACT- and pBIND-based plasmids were co-transfected (TurboFect, FermentasC) to Huh7 cells along with a pG5luc reporter construct, and incubated at 37° C. After 72 hours, the cell lysate was analyzed regarding the luciferase activity.
# [6] = test system: HCV replicon cells; test: Luciferase activity in HCV replicon cells; type: cell-based; conditions: Hepatitis C virus, 72 h, read-out: inhibition of luciferase activity of HCV
# Procedure: Additionally, a series of compounds (WJCPA-1 to WJCPA-135) having the bis-amide structure as a parent structure in common, based on the inhibitory effect of WJCPA-126 against the PPIase activity, were synthesized and their activities were confirmed. Specifically, Huh7-rep cells were treated with each of the compounds at a concentration of 2 μM for 3 days, and the expression level of NS5A was confirmed by performing an immunoblot analysis according to a known method (FIG. 5). The 32 kinds of compounds confirmed to have excellent inhibitory effect especially against the NS5A expression from the immunoblot experiment were measured regarding their inhibitory effect against luciferase activity and the results are illustrated in FIG. 6. In the same manner as in western blot, the HCV replicon cells were treated with each of the compounds at a concentration of 2 μM and incubated for 72 hours, and the total cell lysate of the cultured cells were used for the analyses of western blot and the activity of luciferase.
# [7] = target: T2, CypA (Homo sapiens, UniProt P62937); test: 2D 1H TOCSY NMR of the WJCPA-126 and CypA complex; type: binding; conditions: FIG. 4
# T2 construct: GST (N, cleaved yes); made in house; host or cells: E. coli (pGEX-KG)
# Text: In the spin system of […],[…], and […] of CypA, the connectivity was shown in yellow-, green-, and red solid lines. […] From the above result, it was confirmed that the bis-amide compounds of the present invention can specifically bind to […],[…], and […] residues of CypA thereby inhibiting the PPIase activity of CypA.
# [8] = Toxicity in BALB/c mice
# Procedure: The experimental animals were divided into three groups (n=5) and one of the groups was used as the untreated control group. […] Fourteen days after the administration, blood samples were collected from the treat groups and the control group, respectively. The weight of experimental mice was measured for the evaluation of systemic toxicity in mice. For the confirmation of hepatotoxicity, the AST and ALT activities were measured according to the manufacturer's protocols applied to a 96-well microplate using the GOT-GPT kit (Asan Pharm, Korea). The analysis results regarding the AST and ALT activities were shown in IU/L units. For the confirmation of nephrotoxicity, the blood urea nitrogen (BUN) was measured using the Blood Urea Nitrogen Enzymatic Assay kit (Bioo Scientific, Austin, Tex., USA), and the creatine level in the serum was measured using the Mouse Creatine Assay kit (Crystal Chem, Inc., Downers Grove, Ill., USA).
# [9] = test system: HCV-Con1b replicon; test: HCV mouse model (NOD/SCID mice transplanted with Huh7 HCV-Con1b replicon cells); conditions: 50 mg/kg intraperitoneally daily, two weeks
# Procedure: Five to six-week old immunodeficient NOD/SCID mice (Charles River Laboratories, USA) were used. The use of experimental animals and experimental protocol (KHUASP (SE)-11-045) was approved by the Institutional Animal Care and Use Committee of Kyung Hee University (Seoul, Korea). The control Huh7 cells or the Huh7 cells including the HCV-Con1b replicon were injected into mice intrasplenically (1×10^6 cells/200 μL of PBS). Cell transplantation and surgical procedures were performed under anesthesia along with a prophylactic antibiotic. […] Each treatment group consisted of 5 mice. Upon completion of the treatment, the mice were sacrificed and liver tissues were collected from them for analysis.
# Murine liver tissues were dissected and then cryoprotected in 30% sucrose for the preparation of paraffin-embedded samples. Paraffin samples for Hematoxylin and Eosin (H&E) staining were prepared. After removing paraffin, rehydrated samples were incubated with monoclonal antibodies to human hepatocytes (Hep par 1) and HCV NS5A (Santa Cruz, Calif., USA), which were diluted at a ratio of 1:50, at 4° C. overnight. […] The nuclei were stained with DAPI for 5 minutes and analyzed using a confocal microscope.
# HCV RNA was extracted from liver tissue by Trizol method. Mouse liver tissues were mechanically destroyed and lysed in Trizol (Invitrogen, Carlsbad, Calif., USA). The quantitative analysis of HCV RNA was performed using real-time transcription PCR.
# [10] = test system: IL-8; test: IL-8 mRNA and IL-8 ELISA in HCV replicon cell; type: cell-based, human; conditions: 2 μM
# Procedure: Example 11: Determination of IL-8 and INF-α Concentrations in Cell Culture Media by ELISA
# Upon incubation, the cell culture media were collected and the IL-8 and IFN-α concentrations were analyzed according to the protocol of eBioscience (San Diego, Calif., USA) by ELISA.
# as §1, §2
# T2 sequence (P62937 whole entry): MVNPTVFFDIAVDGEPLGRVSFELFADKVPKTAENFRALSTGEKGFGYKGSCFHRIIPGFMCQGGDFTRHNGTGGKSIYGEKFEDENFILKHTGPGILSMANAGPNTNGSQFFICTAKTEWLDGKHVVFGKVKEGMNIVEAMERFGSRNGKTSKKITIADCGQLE
# T1 sequence (P62937 whole entry): as above
smiles,measurement,setting,value
"COc1cc(C(C(=O)NC2CCCCC2)N(C(=O)Cc2c[nH]c3ccccc23)c2ccc(C(C)C)cc2)cc(OC)c1OC (centres unmarked) [WJCPA-126, N-cyclohexyl-2-[(2-1H-indol-3-yl-acetyl)-(4-isopropyl-phenyl)-amino]-2-(3,4,5-trimethoxy-phenyl)-acetamide]",EC50,[1],1.1 ± 0.05 µM
same,CC50,[2],22.3 ± 4.23 µM
same,effect on ionomycin-stimulated calcineurin phosphorylase activity,[3],no inhibitory effect
same,"mRNA expression levels of STAT1, STAT2, IRF9, OAS1, and ISG15",[4],"increase the mRNA expression levels of STAT1, STAT2, IRF9, OAS1, and ISG15 in a time-dependent manner"
same,interactions between CypA and NS5A or NS5B,[5],destroys the interactions between CypA and NS5A or NS5B
same,inhibition at 2 µM,[6],≤ 80%
same,binding residues of CypA by NMR,[7],"binds to Arg 55, Trp 121, and Phe 113 residues of CypA"
same,serum ALT and AST,"[8]; 50 mg/kg for 2 weeks, FIG. 17b, 17c",No difference was observed
same,"safety parameters (body weight, serum ALT, AST, BUN, creatinine)","[8]; 50 mg/kg intraperitoneally daily, 14 days, FIG. 17",did not induce any noticeable change on safety parameters
same,body weight,[9]; FIG. 19a,did not show any noticeable change in body weight
same,HCV RNA level in liver,[9]; FIG. 19b,relatively higher level of inhibition on the HCV RNA level than the CsA treatment
same,HCV NS5A in transplanted mouse liver tissue (immunofluorescence),[9]; FIG. 20,only faintly detected
same,mRNA level of IL-8,[10]; FIG. 15b,significant reduction of mRNA level of IL-8 in a time-dependent manner
same,IL-8 production (ELISA),[10]; FIG. 15c,significantly reduces the expression of IL-8 production
